Values joined by “and” are separate entries in the source; they are usually repeats but may differ in a detail not shown here. Identical values can stand only once. Toxic doses and inconclusive results are not listed. The calls were made as follows: active = survival T/C of 150% or more; inactive = T/C below 125% in these data.
Tested on: P388 leukemia ip, CD2F1 mice, survival T/C
Experiment: NCI In Vivo Anticancer Drug Screen. Data for tumor model P388 Leukemia (intraperitoneal) in CD2F1 (CDF1) mice
Settings: endpoint: median survival time, higher = longer survival
Summary of the method: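 Mice carrying the transplanted tumor received test compound or vehicle. Survival was recorded in each group, and the value is the treated-group measurement divided by that of the vehicle-treated control group.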

[1] = dose: 50.0 mg/kg/injection, schedule: Q01DX009 (ip), vehicle: Klucel (hydroxypropylcellulose) (HPC)
[2] = dose: 100.0 mg/kg/injection, schedule: Q01DX009 (ip), vehicle: Klucel (hydroxypropylcellulose) (HPC)
[3] = dose: 200.0 mg/kg/injection, schedule: Q01DX009 (ip), vehicle: Klucel (hydroxypropylcellulose) (HPC)
[4] = dose: 25.0 mg/kg/injection, schedule: Q01DX009 (ip), vehicle: saline with Tween-80
[5] = dose: 50.0 mg/kg/injection, schedule: Q01DX005 (ip), vehicle: saline with Tween-80
[6] = dose: 100.0 mg/kg/injection, schedule: Q01DX005 (ip), vehicle: saline with Tween-80
[7] = dose: 200.0 mg/kg/injection, schedule: Q01DX005 (ip), vehicle: saline with Tween-80

Measured: T/C

CCOC(=O)CCC(Cl)(Cl)Cl
inactive: [1] 100 % of control | [2] 100 % of control | [3] 97 % of control

Cc1ccc(C(=O)OC(C(=O)O)C(OC(=O)c2ccc(C)cc2)C(=O)O)cc1 (stereo not drawn) (tested in a mixture with another compound)
inactive: dose: 5.25 mg/kg/injection, schedule: Q01DX005 (ip), vehicle: Klucel (hydroxypropylcellulose) (HPC) 105 % of control | dose: 10.5 mg/kg/injection, schedule: Q01DX005 (ip), vehicle: Klucel (hydroxypropylcellulose) (HPC) 107 % of control | dose: 21.0 mg/kg/injection, schedule: Q01DX005 (ip), vehicle: Klucel (hydroxypropylcellulose) (HPC) 105 % of control | dose: 42.0 mg/kg/injection, schedule: Q01DX005 (ip), vehicle: Klucel (hydroxypropylcellulose) (HPC) 100 % of control

O=C1NC(=O)/C(=C/C=C/c2ccccc2)S1
inactive: [4] 102 % of control and 111 % of control | dose: 50.0 mg/kg/injection, schedule: Q01DX009 (ip), vehicle: saline with Tween-80 102 % of control and 116 % of control and 118 % of control | dose: 100.0 mg/kg/injection, schedule: Q01DX009 (ip), vehicle: saline with Tween-80 93 % of control | dose: 200.0 mg/kg/injection, schedule: Q01DX009 (ip), vehicle: saline with Tween-80 123 % of control

[Br][Rh][Br].[NH-]c1nc2c(ccc3ccccc32)s1.[NH-]c1nc2c(ccc3ccccc32)s1.[NH-]c1nc2c(ccc3ccccc32)s1.[NH-]c1nc2c(ccc3ccccc32)s1
inactive: dose: 100.0 mg/kg/injection, schedule: Q04DX003 (ip), vehicle: saline 109 % of control | dose: 200.0 mg/kg/injection, schedule: Q04DX003 (ip), vehicle: saline 103 % of control | dose: 400.0 mg/kg/injection, schedule: Q04DX003 (ip), vehicle: saline 98 % of control

COC(=O)CCSC(=O)NC1CCCCC1
inactive: dose: 50.0 mg/kg/injection, schedule: Q01DX005 (ip), vehicle: Klucel (hydroxypropylcellulose) (HPC) 102 % of control | dose: 100.0 mg/kg/injection, schedule: Q01DX005 (ip), vehicle: Klucel (hydroxypropylcellulose) (HPC) 107 % of control | dose: 200.0 mg/kg/injection, schedule: Q01DX005 (ip), vehicle: Klucel (hydroxypropylcellulose) (HPC) 102 % of control

O=C(CC(=O)N1CCN=C1Nc1c(Cl)cccc1Cl)c1ccc(Cl)cc1
inactive: dose: 6.25 mg/kg/injection, schedule: Q01DX009 (ip), vehicle: Klucel (hydroxypropylcellulose) (HPC) 109 % of control | dose: 12.5 mg/kg/injection, schedule: Q01DX009 (ip), vehicle: Klucel (hydroxypropylcellulose) (HPC) 105 % of control | dose: 25.0 mg/kg/injection, schedule: Q01DX009 (ip), vehicle: Klucel (hydroxypropylcellulose) (HPC) 96 % of control

COc1cc([C@@H]2c3cc4c(cc3[C@H](O)[C@H]3COC[C@@H]23)OCO4)cc(OC)c1OC
inactive: [5] 103 % of control | [6] 108 % of control | [7] 103 % of control

O=C(CCSSc1ccccn1)ON1C(=O)CCC1=O
inactive: dose: 100.0 mg/kg/injection, schedule: Q01DX001 (ip), vehicle: saline 102 % of control | dose: 200.0 mg/kg/injection, schedule: Q01DX001 (ip), vehicle: saline 107 % of control | dose: 400.0 mg/kg/injection, schedule: Q01DX001 (ip), vehicle: saline 100 % of control

O=c1c2ccc(S(=O)(=O)c3ccc4c(=O)n5c6ccccc6nc5c5cccc3c45)c3cccc(c32)c2nc3ccccc3n12
inactive: dose: 60.0 mg/kg/injection, schedule: Q01DX005 (ip), vehicle: Klucel (hydroxypropylcellulose) (HPC) 86 % of control | dose: 120.0 mg/kg/injection, schedule: Q01DX005 (ip), vehicle: Klucel (hydroxypropylcellulose) (HPC) 88 % of control | dose: 240.0 mg/kg/injection, schedule: Q01DX005 (ip), vehicle: Klucel (hydroxypropylcellulose) (HPC) 99 % of control

CC(C)=CCC/C(C)=C/CSC#N
inactive: dose: 25.0 mg/kg/injection, schedule: Q01DX005 (ip), vehicle: saline with Tween-80 102 % of control | [5] 105 % of control | [6] 111 % of control | [7] 104 % of control

[N-]=[N+]=N[Si](c1ccccc1)(c1ccccc1)c1ccccc1
inactive: [1] 103 % of control | [2] 101 % of control | [3] 103 % of control

O=CNc1ccc(/C=C\c2ccnc3ccccc23)cc1
inactive: dose: 3.13 mg/kg/injection, schedule: Q01DX009 (ip), vehicle: saline with Tween-80 109 % of control | dose: 6.25 mg/kg/injection, schedule: Q01DX009 (ip), vehicle: saline with Tween-80 100 % of control | dose: 12.5 mg/kg/injection, schedule: Q01DX009 (ip), vehicle: saline with Tween-80 100 % of control | [4] 91 % of control

Cc1ncc(C(O)c2ccc(N(C)C)cc2)n1Cc1ccccc1 (stereo not drawn)
inactive: dose: 60.0 mg/kg/injection, schedule: Q01DX005 (ip), vehicle: saline with Tween-80 98 % of control | dose: 120.0 mg/kg/injection, schedule: Q01DX005 (ip), vehicle: saline with Tween-80 95 % of control | dose: 240.0 mg/kg/injection, schedule: Q01DX005 (ip), vehicle: saline with Tween-80 95 % of control

From PubChem BioAssay AID330 (DTP/NCI, 2004)
